The values that follow come from PubChem BioAssay AID1259407 (Chemical Carcinogenesis Research Information System (CCRIS), 2018).

The series deals with CCRIS mutagenicity, Ames/micronucleus/aberration tests. In words: CCRIS mutagenicity studies.
[1] abbreviates: Test System: AMES SALMONELLA TYPHIMURIUM, Strain/Indicator: TA98, Metabolic Activation: NONE, Method: PREINCUBATION
Setting [2] is: Test System: AMES SALMONELLA TYPHIMURIUM, Strain/Indicator: TA100, Metabolic Activation: NONE, Method: PREINCUBATION
[3] abbreviates: Test System: AMES SALMONELLA TYPHIMURIUM, Strain/Indicator: TA1535, Metabolic Activation: NONE, Method: PREINCUBATION
Setting [4] is: Test System: AMES SALMONELLA TYPHIMURIUM, Strain/Indicator: TA1537, Metabolic Activation: NONE, Method: PREINCUBATION
[5] abbreviates: Test System: AMES SALMONELLA TYPHIMURIUM, Strain/Indicator: TA100, Metabolic Activation: NONE, Method: STANDARD PLATE.

Each structure is given as a SMILES string. Active and inactive are the calls of the source. How the calls were made is not given here.

As to `Nc1nc(=O)n([C@H]2C[C@H](O)[C@@H](CO)O2)cc1CCCl`, the mutagenic call reads like this: (Test System: AMES SALMONELLA TYPHIMURIUM, Strain/Indicator: TA97, Metabolic Activation: NONE, Method: PREINCUBATION) “inactive; negative”; (Test System: AMES SALMONELLA TYPHIMURIUM, Strain/Indicator: TA97, Metabolic Activation: RAT, LIVER, S-9, AROCLOR 1254, Method: PREINCUBATION) “inactive; negative”; under setting [1], “inactive; negative”; (Test System: AMES SALMONELLA TYPHIMURIUM, Strain/Indicator: TA98, Metabolic Activation: RAT, LIVER, S-9, AROCLOR 1254, Method: PREINCUBATION) “inactive; negative”; under setting [2], “inactive; negative”; (Test System: AMES SALMONELLA TYPHIMURIUM, Strain/Indicator: TA100, Metabolic Activation: RAT, LIVER, S-9, AROCLOR 1254, Method: PREINCUBATION) “inactive; negative”. For the same compound, the mutagenic call was “inactive; negative” (Test System: AMES SALMONELLA TYPHIMURIUM, Strain/Indicator: TA102, Metabolic Activation: NONE, Method: PREINCUBATION); “inactive; negative” (Test System: AMES SALMONELLA TYPHIMURIUM, Strain/Indicator: TA102, Metabolic Activation: RAT, LIVER, S-9, AROCLOR 1254, Method: PREINCUBATION); “inactive; negative” (Test System: AMES SALMONELLA TYPHIMURIUM, Strain/Indicator: TA104, Metabolic Activation: NONE, Method: PREINCUBATION); “inactive; negative” (Test System: AMES SALMONELLA TYPHIMURIUM, Strain/Indicator: TA104, Metabolic Activation: RAT, LIVER, S-9, AROCLOR 1254, Method: PREINCUBATION); “inactive; negative” under setting [3]; “inactive; negative” (Test System: AMES SALMONELLA TYPHIMURIUM, Strain/Indicator: TA1535, Metabolic Activation: RAT, LIVER, S-9, AROCLOR 1254, Method: PREINCUBATION). Also, the mutagenic call is “inactive; negative” under setting [4]; “inactive; negative” (Test System: AMES SALMONELLA TYPHIMURIUM, Strain/Indicator: TA1537, Metabolic Activation: RAT, LIVER, S-9, AROCLOR 1254, Method: PREINCUBATION); “inactive; negative” (Test System: AMES SALMONELLA TYPHIMURIUM, Strain/Indicator: TA1538, Metabolic Activation: NONE, Method: PREINCUBATION); “inactive; negative” (Test System: AMES SALMONELLA TYPHIMURIUM, Strain/Indicator: TA1538, Metabolic Activation: RAT, LIVER, S-9, AROCLOR 1254, Method: PREINCUBATION); “inactive; negative” (Test System: CHINESE HAMSTER V-79, Strain/Indicator: V-79/8-AZAGUANINE, Metabolic Activation: NONE).
Turning to `c1ccc2c(c1)Nc1ccccc1S2`, the mutagenic call (Test System: AMES SALMONELLA TYPHIMURIUM, Strain/Indicator: TA98, Metabolic Activation: HAMSTER, LIVER, S-9, AROCLOR 1254 (10%), Method: PREINCUBATION) was “inactive; negative”; the mutagenic call under setting [1] is “inactive; negative”; the mutagenic call (Test System: AMES SALMONELLA TYPHIMURIUM, Strain/Indicator: TA98, Metabolic Activation: NONE, Method: SPOT TEST) was “inactive; negative”; the mutagenic call (Test System: AMES SALMONELLA TYPHIMURIUM, Strain/Indicator: TA98, Metabolic Activation: RAT, LIVER, S-9, AROCLOR 1254 (10%), Method: PREINCUBATION) is “inactive; negative”; the mutagenic call (Test System: AMES SALMONELLA TYPHIMURIUM, Strain/Indicator: TA100, Metabolic Activation: HAMSTER, LIVER, S-9, AROCLOR 1254 (10%), Method: PREINCUBATION) is “inactive; negative”; the mutagenic call under setting [2] is “inactive; negative”. The mutagenic call was “inactive; negative” (Test System: AMES SALMONELLA TYPHIMURIUM, Strain/Indicator: TA100, Metabolic Activation: RAT, LIVER, S-9, AROCLOR 1254 (10%), Method: PREINCUBATION); “inactive; negative” (Test System: AMES SALMONELLA TYPHIMURIUM, Strain/Indicator: TA1535, Metabolic Activation: HAMSTER, LIVER, S-9, AROCLOR 1254 (10%), Method: PREINCUBATION); “inactive; negative” under setting [3]; “inactive; negative” (Test System: AMES SALMONELLA TYPHIMURIUM, Strain/Indicator: TA1535, Metabolic Activation: RAT, LIVER, S-9, AROCLOR 1254 (10%), Method: PREINCUBATION); “inactive; negative” (Test System: AMES SALMONELLA TYPHIMURIUM, Strain/Indicator: TA1537, Metabolic Activation: HAMSTER, LIVER, S-9, AROCLOR 1254 (10%), Method: PREINCUBATION); “inactive; negative” under setting [4]. Moreover, the mutagenic call (Test System: AMES SALMONELLA TYPHIMURIUM, Strain/Indicator: TA1537, Metabolic Activation: RAT, LIVER, S-9, AROCLOR 1254 (10%), Method: PREINCUBATION) is “inactive; negative”.
In the case of `C1CC[CH]([Sn]([CH]2CCCCC2)[CH]2CCCCC2)CC1`, the mutagenic call is “inactive; negative” (Test System: UDS HUMAN PERIPHERAL BLOOD LYMPHOCYTES, Strain/Indicator: THY INCORP, Metabolic Activation: NONE, Method: LIQUID SCINTILLATION) and “inactive; negative” (Test System: UDS HUMAN PERIPHERAL BLOOD LYMPHOCYTES, Strain/Indicator: THY INCORP, Metabolic Activation: RAT, LIVER, S-9, PHENOBARBITAL AND BETA-NAPHTHOFLAVONE, Method: LIQUID SCINTILLATION).
As to `O=C1NCCN1c1nccs1`, the mutagenic call (Test System: AMES SALMONELLA TYPHIMURIUM, Strain/Indicator: TA98, Metabolic Activation: NONE, Method: STANDARD PLATE) is “active; positive”.
Turning to `CCCOS(=O)(=O)c1ccc(C)cc1`, the mutagenic call (End Point: IN VITRO MICRONUCLEUS, Test System: MOUSE LYMPHOMA L5178Y CELLS, Metabolic Activation: NONE) was “inactive; negative; positive results only at highly excessively cytotoxic doses”; the mutagenic call (End Point: IN VITRO MICRONUCLEUS, Test System: MOUSE LYMPHOMA L5178Y CELLS, Metabolic Activation: RAT, LIVER, S-9) is “inactive; negative”; the mutagenic call (End Point: In vitro micronucleus, Test System: Chinese Hamster Ovary (CHO-WBL) cells, Metabolic Activation: None) is “inactive; negative”; the mutagenic call under setting [5] is “active; positive”; the mutagenic call (Test System: AMES SALMONELLA TYPHIMURIUM, Strain/Indicator: TA100, Metabolic Activation: RAT, LIVER, S-9, Method: STANDARD PLATE) is “active; positive”.
Take `CC(=O)OO[N+](=O)[O-]`: the mutagenic call (Test System: AMES SALMONELLA TYPHIMURIUM, Strain/Indicator: TA100, Metabolic Activation: NONE) is “active; positive” and the mutagenic call (Test System: AMES SALMONELLA TYPHIMURIUM, Strain/Indicator: TA100, Metabolic Activation: RAT, LIVER, S-9, AROCLOR 1254) is “active; positive”.
As for `C=COc1ccc([N+](=O)[O-])cc1`, the mutagenic call is “active; positive” (Test System: AMES SALMONELLA TYPHIMURIUM, Strain/Indicator: TA100(NR), Metabolic Activation: MOUSE, LIVER, S-13, Method: STANDARD PLATE); “inactive; negative” (Test System: AMES SALMONELLA TYPHIMURIUM, Strain/Indicator: TA100(NR), Metabolic Activation: NONE, Method: PREINCUBATION); “inactive; negative” (Test System: AMES SALMONELLA TYPHIMURIUM, Strain/Indicator: TA100(NR), Metabolic Activation: NONE, Method: STANDARD PLATE); “active; positive” (Test System: AMES SALMONELLA TYPHIMURIUM, Strain/Indicator: TA100(NR), Metabolic Activation: RAT, LIVER, S-9, PCB, Method: PREINCUBATION); “active; positive” (Test System: AMES SALMONELLA TYPHIMURIUM, Strain/Indicator: TA100, Metabolic Activation: MOUSE, LIVER, S-13, Method: STANDARD PLATE); “active; positive” under setting [2]. Besides, the mutagenic call under setting [5] is “active; positive”; the mutagenic call (Test System: AMES SALMONELLA TYPHIMURIUM, Strain/Indicator: TA100, Metabolic Activation: RAT, LIVER, S-9, PCB, Method: PREINCUBATION) is “active; positive”; the mutagenic call (Test System: AMES SALMONELLA TYPHIMURIUM, Strain/Indicator: TA1535, Metabolic Activation: MOUSE, LIVER, S-13, Method: STANDARD PLATE) is “active; positive”; the mutagenic call (Test System: AMES SALMONELLA TYPHIMURIUM, Strain/Indicator: TA1535, Metabolic Activation: NONE, Method: STANDARD PLATE) is “inactive; negative”.
Turning to `CCN(CO)N=O`, the mutagenic call (Test System: CHINESE HAMSTER V-79, Strain/Indicator: V-79/OUABAIN, Metabolic Activation: NONE) was “active; positive”.
